Experimental findings from patent publication US20110015248A1, “SUBSTITUTED HETEROCYCLES” (INTERMED DISCOVERY GMBH, priority 2003, published 2011) are described below.

The structures appear in SMILES notation.

One data set deals with T1, Human red blood cell S20 proteasome (Homo sapiens, UniProt P28074).
T1 construct: host or cells: human red blood cells (native tissue preparation)
The experiment in a line: Proteasome inhibition assay. Type of data set: biochemical.
Conditions: not given
As for the experimental part:
The test compound is diluted at various concentrations in 2.5% DMSO in a polypropylene 96 well plate. […] The diluted working solution (10 μl/well) is transferred into a polypropylene 96 well plate. The assay buffer consists of 50 mM Tris-HCl (pH 8.0), 0.5 mM EDTA, 0.005% TritonX-100, 0.005% SDS, prepared as a stock solution at 10× concentration. The peptide substrate (Suc-Leu-Leu-Val-Tyr-MCA; 3120v; Peptide Institute; Osaka, Japan) is stored at 10 mM in 100% DMSO. […] The compound and the substrate are preincubated for 10 min at room temperature. Then the mixture of the compound and the substrate (10 μl/well) is transferred to a black non-coated 384 well assay plate (Nunc) and autofluorescence emission is measured at 460 nm (λex, 360 nm) by using a ARVO fluorescence plate leader (Perkin Elmer, Tokyo, Japan).
Human red blood cell S20 proteasome are obtained from Affinity research products Ltd (Cat#PW8720; Exeter, UK) and stored at −80° C. The proteasome is diluted 1 in 1000 with 1× concentration of the assay buffer and 10 μl is added to the substrates and the inhibitor mixture in the plate. The proteolytic reaction is performed at room temperature. The fluorescence emission is continuously measured for 90 min. IC50 values of the compounds are determined at initial velocity of the reaction.
As usually defined, the IC50 is the concentration that inhibits the measured activity by half. As for `CCCCCC[C@H]1C(=O)N[C@@]2([C@@H](O)[C@@H]3C=CCCC3)C(=O)O[C@@]12C` [Example 1, (1R,4R,5S)-1-[(S)-(1S)-2-cyclohexen-1-yl(hydroxy)methyl]-4-hexyl-5-methyl-6-oxa-2-aza-bicyclo[3.2.0]heptane-3,7-dione], the IC50 was 1 nM.

In the case of `CCCCCC[C@H]1C(=O)N[C@](C(=O)SCCC(=O)OC)([C@@H](O)[C@@H]2C=CCCC2)[C@@]1(C)O` [Example 12, 3-[2-(Cyclohex-2-enyl-hydroxy-methyl)-4-hexyl-3-hydroxy-3-methyl-5-oxo-pyrrolidine-2-carbonylsulfanyl]-propionic acid methyl ester], the IC50 was found to be 0.2 nM.

The same data set, now with this note: substrate Suc-Leu-Leu-Val-Tyr-MCA; room temperature; IC50 determined at initial velocity of the reaction; read-out: IC50.
For `CCCCCC(O)[C@H]1C(=O)N[C@](C(=O)O)(C(O)[C@@H]2C=CCCC2)[C@@]1(C)O` (stereo partly drawn) [Example 4, (3S,4R)-2-[(S)-(1S)-2-cyclohexen-1-yl(hydroxy)methyl]-3-hydroxy-4-[1-hydroxy-hexyl]-3-methyl-5-oxo-D-proline], the IC50 worked out at 305 nM.

As to `CCCCCC[C@H]1C(=O)N[C@](C(=O)SCc2ccccc2)([C@@H](O)C2CCCCC2)[C@@]1(C)O` [Example 17, 2-(Cyclohexyl-hydroxy-methyl)-4-hexyl-3-hydroxy-3-methyl-5-oxo-pyrrolidine-2-carbothioic acid S-benzyl ester], the IC50 is 106 nM.

Tested on in another data set: not given
Test: not given
Conditions: not given
As a reminder, the melting point is the temperature, or range, at which the solid turns liquid. Molecule `CCCCCC(O)[C@H]1C(=O)N[C@@]2(C(O)[C@@H]3C=CCCC3)C(=O)O[C@@]12C` (stereo partly drawn) had a melting point of 144 °C.

As for `CCCCCC[C@H]1C(=O)N[C@](C(=O)SCc2ccccc2)([C@@H](O)[C@@H]2C=CCCC2)[C@@]1(C)O` (stereo in doubt), the melting point came out at 138 °C.

The molecule `CCCCCC[C@H]1C(=O)N[C@](C(=O)SCCNC(C)=O)([C@@H](O)[C@@H]2C=CCCC2)[C@@]1(C)O` (stereo in doubt) had a melting point of 82 °C.

`CCCCCC[C@H]1C(=O)N[C@](C(=O)SC2CCCCC2)([C@@H](O)[C@@H]2C=CCCC2)[C@@]1(C)O` (stereo in doubt) registered a melting point of 85 °C.

As to `CCCCCC(O)[C@H]1C(=O)N[C@](C(=O)SCCNC(C)=O)([C@@H](O)[C@@H]2C=CCCC2)[C@@]1(C)O` (stereo in doubt), the melting point is 80 °C.

`CCCCCC(O)[C@H]1C(=O)N[C@](C(=O)SCC(=O)OC)([C@@H](O)[C@@H]2C=CCCC2)[C@@]1(C)O` (stereo in doubt): the melting point was determined as 75 °C.

The molecule `CCCCCC[C@H]1C(=O)N[C@](C(=O)SCCC(=O)OC)([C@@H](O)C2CCCCC2)[C@@]1(C)O` (stereo in doubt) returned a melting point of 132 °C.

In turn, `CCCCCC[C@H]1C(=O)N[C@@]2([C@@H](O)C3CCCCC3)C(=O)O[C@@]12C` (stereo in doubt) showed a melting point of 167 °C.

Molecule `CCCCCC(O)[C@H]1C(=O)N[C@](C(=O)SCc2ccccc2)([C@@H](O)[C@@H]2C=CCCC2)[C@@]1(C)O` (stereo in doubt) [Example 14, 2-(Cyclohex-2-enyl-hydroxy-methyl)-3-hydroxy-4-(1-hydroxy-hexyl)-3-methyl-5-oxo-pyrrolidine-2-carbothioic acid S-benzyl ester] showed a melting point of 123 °C.

With `CCCCCC[C@H]1C(=O)N[C@](C(=O)SCCC(=O)OC)([C@@H](O)[C@@H]2C=CCCC2)[C@@]1(C)O` [Example 12, 3-[2-(Cyclohex-2-enyl-hydroxy-methyl)-4-hexyl-3-hydroxy-3-methyl-5-oxo-pyrrolidine-2-carbonylsulfanyl]-propionic acid methyl ester], the melting point was 64 °C.

`CCCCCC[C@H]1C(=O)N[C@](C(=O)SCc2ccccc2)([C@@H](O)C2CCCCC2)[C@@]1(C)O` [Example 17, 2-(Cyclohexyl-hydroxy-methyl)-4-hexyl-3-hydroxy-3-methyl-5-oxo-pyrrolidine-2-carbothioic acid S-benzyl ester]: the melting point is 181 °C.
